This is an account of results in patent US20160287710A1 (UNIVERSITY OF UTAH RESEARCH FOUNDATION, priority 2013, published 2016).

A short description of the data set: Solubility of progesterone in glycol chitin solutions (reverse-phase HPLC). Type of data set: physicochemical. Particulars: aqueous with cosolvent or surfactant or cyclodextrin. As to the method:
A mixture of methanol/water (80:20; v/v) was used, as the mobile phase at a flow rate of 1 mL per minute. […] FIG. 1.

Converted amounts (≈) assume the structure as drawn.

As usually defined, the solubility is the concentration that dissolves in the medium under given conditions. The compound `CC(=O)[C@H]1CC[C@H]2[C@@H]3CCC4=CC(=O)CC[C@]4(C)[C@H]3CC[C@]12C` [Progesterone] yielded a solubility at 24 h (5 wt % glycol chitin solution, 4 °C, thermodynamic from solid) of 148 ± 13.8 µg/mL (≈ 472 µM). In addition, the solubility (in a mixture of PEG-400/water (50:50 v/v)) is approximately 200 µg/mL (≈ 636 µM).
